# Assay results reported in patent US12194051B2, “5-azaindazole derivatives as adenosine receptor antagonists” (MERCK PATENT GMBH, priority 2018, dated 2025).
# What was measured:
# Format in all cases: cell-based
# human A2A receptors = target: T1, human A2A receptors (Homo sapiens, UniProt P29274); experiment: Inhibition of human A2A receptor in recombinant HEK293 cells, cAMP quantification (HTRF); settings: read-out: A2A (Category)
# T1 construct: expressed in transfected cells; host or cells: HEK293
# T1 sequence (P29274 whole entry): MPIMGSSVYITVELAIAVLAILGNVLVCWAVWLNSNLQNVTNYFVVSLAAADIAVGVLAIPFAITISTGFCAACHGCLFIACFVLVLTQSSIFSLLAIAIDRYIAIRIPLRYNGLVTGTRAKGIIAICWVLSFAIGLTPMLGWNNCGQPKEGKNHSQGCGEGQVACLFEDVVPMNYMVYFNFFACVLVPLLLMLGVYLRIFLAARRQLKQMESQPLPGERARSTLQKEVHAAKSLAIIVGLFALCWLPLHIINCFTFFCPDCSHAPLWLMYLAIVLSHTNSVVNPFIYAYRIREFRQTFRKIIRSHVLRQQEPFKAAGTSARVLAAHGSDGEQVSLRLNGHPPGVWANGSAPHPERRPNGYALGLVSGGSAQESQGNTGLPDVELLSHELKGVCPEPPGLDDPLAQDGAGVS
# Summary of the method: (§1)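 Adenosine receptor activity tracked via second-messenger cAMP; incubation 15 min, then HTRF detection of cellular cAMP.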
# human A2B receptors = target: T2, human A2B receptors (Homo sapiens, UniProt P29275); experiment: Inhibition of human A2B receptor in recombinant HEK293 cells, cAMP quantification (HTRF); settings: read-out: A2B (Category)
# T2 construct: expressed in transfected cells; host or cells: HEK293
# T2 sequence (P29275 1-332): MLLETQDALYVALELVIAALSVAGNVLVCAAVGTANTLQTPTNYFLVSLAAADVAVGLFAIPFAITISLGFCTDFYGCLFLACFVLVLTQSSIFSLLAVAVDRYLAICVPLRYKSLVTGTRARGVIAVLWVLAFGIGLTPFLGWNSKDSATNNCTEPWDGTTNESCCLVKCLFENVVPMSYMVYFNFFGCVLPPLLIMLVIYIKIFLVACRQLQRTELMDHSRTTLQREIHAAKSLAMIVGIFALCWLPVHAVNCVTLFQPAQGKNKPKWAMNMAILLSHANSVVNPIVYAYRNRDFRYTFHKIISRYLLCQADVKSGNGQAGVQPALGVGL
# Summary of the method: as §1
# [1] = target: T3, endogenous human A2A receptor (Homo sapiens, UniProt P29274); experiment: Human T cell assay, endogenous A2A receptor, cAMP quantification
# T3 construct: The endogenous functional activity of the Gs-coupled human A2A receptor was measured in T cells; endogenous in cells; host or cells: human pan T cells isolated from PBMC of fresh whole blood
# T3 sequence (P29274 whole entry): as the sequence (P29274 whole entry) above
# Protocol: The endogenous functional activity of the Gs-coupled human A2A receptor was measured in T cells, where this receptor is highly expressed. Determination of receptor activity was done by quantification of cAMP, which is a second messenger for adenosine receptors.
# In short, human pan T cells were isolated from human PBMC (MACS Pan T Cell Isolation Kit, Miltenyi Biotec) that have been derived from fresh whole blood. The T cells were seeded in 384-well microtiter plates and treated with test compounds. […] Finally, HTRF reagents (cAMP Femto Kit, CisBio) were added to the wells, and after 1 h cellular cAMP levels were determined using the ENVISION (Perkin Elmer) plate reader.
# The obtained raw data were normalized against the inhibitor control and the neutral control (DMSO) and the normalized data were fitted using Genedata Screener software.
# Human T cell = Human T cell IL-2; settings: human T cells
# mouse Pan T cells = experiment: Mouse T cell IL-2 rescue from NECA inhibition (ELISA); settings: 24 h
# From the text: Adenosine (Ado) in tumor microenvironment can inhibit T cell activity by signaling through A2A receptors and suppress cytokine secretion by T cells. […] Potential A2A antagonists or A2A/A2B dual antagonists can rescue T cells from this inhibition. Herein, we describe the in vitro system we established using Pan T cells from mouse spleens to screen potential A2A antagonists or A2A/A2B dual antagonists for their activity. The method described involves the use of CD3/CD28 pre-coated beads to stimulate Pan T cells purified from mouse splenocytes, combined with the addition of A2A agonist along with potential A2A or A2A/A2B dual antagonists to evaluate potentiation of T cell cytokine production.
# Briefly, mouse Pan T cells are purified from spleens of BALB/c mice using Pan T cell isolation kit Mouse II (MACS Miltenyi biotech Cat # Order no. 130-095-130) according to manufacturer's protocol. […] After 24 h incubation IL-2 levels in the supernatants are measured by ELISAs according to manufacturer's protocol (R&D systems Cat # DY402 (IL-2)). Once the concentrations are calculated, the difference of cytokine concentration of DMSO control and agonist alone control is calculated and the percentage of rescue by each concentration of antagonist is calculated by using Microsoft Excel. […]
IC50 (human A2A receptors),IC50 (human A2B receptors),IC50 [1],IC50 (Human T cell),IC50 (mouse Pan T cells),Structure (SMILES)
< 100 nM,< 100 nM,< 100 nM,< 100 nM,< 1000 nM,"O=C(c1cc2c(cn1)c(Nc1ccc(F)cc1)nn2CC(F)(F)F)N1CCCOCC1 [Compound 10, [3-(4-fluoroanilino)-1-(2,2,2-trifluoroethyl)pyrazolo[4,3-c]pyridin-6-yl]-(1,4-oxazepan-4-yl)methanone]"
< 100 nM,< 1000 nM,,,,"O=C(c1cc2c(cn1)c(Nc1ccc(F)cn1)nn2CC(F)(F)F)N1CCC[C@H](F)C1 [Compound 100, [(3S)-3-fluoro-piperidin-1-yl]-[3-(5-Fluoro-pyridin-2-ylamino)-1-(2,2,2-trifluoro-ethyl)-1H-pyrazolo[4,3-c]pyridin-6-yl]methanone]"
< 100 nM,< 100 nM,,,,"O=C(c1cc2c(cn1)c(Nc1cccc(F)c1)nn2CC(F)(F)F)N1CCC(O)CC1 [Compound 23, [3-(3-fluoroanilino)-1-(2,2,2-trifluoroethyl)pyrazolo[4,3-c]pyridin-6-yl]-(4-hydroxy-1-piperidyl)methanone]"
< 100 nM,< 100 nM,,,,"O=C(c1cc2c(cn1)c(Nc1cc(F)ccn1)nn2CC(F)(F)F)N1CCC[C@H](O)C1 [Compound 117, [(3S)-3-hydroxy-piperidin-1-yl]-[3-(4-fluoro-pyridin-2-ylamino)-1-(2,2,2-trifluoro-ethyl)-1H-pyrazolo[4,3-c]pyridin-6-yl]methanone]"
< 100 nM,< 1000 nM,,,,"O=C(c1cc2c(cn1)c(Nc1ccc(F)cn1)nn2CC(F)(F)F)N1CCC[C@H](O)C1 [Compound 98, [(3S)-3-hydroxy-piperidin-1-yl]-[3-(5-Fluoro-pyridin-2-ylamino)-1-(2,2,2-trifluoro-ethyl)-1H-pyrazolo[4,3-c]pyridin-6-yl]methanone]"

# More lines, now with the values behind:
Structure (SMILES),IC50 (human A2A receptors),IC50 (human A2B receptors),IC50 [1],IC50 (Human T cell),IC50 (mouse Pan T cells)
"O=C(c1cc2c(cn1)c(Nc1ccc(F)cc1)nn2CC(F)(F)F)N1[C@@H]2CC[C@H]1C[C@@H](O)C2 [Compound 26, [3-(4-fluoroanilino)-1-(2,2,2-trifluoroethyl)pyrazolo[4,3-c]pyridin-6-yl]-(3-endo-hydroxy-8-azabicyclo[3.2.1]octan-8-yl)methanone]",< 100 nM,< 1000 nM,,,
"CC1(O)CCN(C(=O)c2cc3c(cn2)c(Nc2ccccn2)nn3CC(F)(F)F)CC1 [Compound 53, (4-hydroxy-4-methyl-1-piperidyl)-[3-(2-pyridylamino)-1-(2,2,2-trifluoroethyl)pyrazolo[4,3-c]pyridin-6-yl]methanone]",< 100 nM,< 100 nM,,,
"CC1(O)CCN(C(=O)c2cc3c(cn2)c(Nc2ccc(F)cc2)nn3CC(F)(F)F)CC1 [Compound 34, [3-(4-fluoroanilino)-1-(2,2,2-trifluoroethyl)pyrazolo[4,3-c]pyridin-6-yl]-(4-hydroxy-4-methyl-1-piperidyl)methanone]",< 100 nM,< 1000 nM,,,
"O=C(c1cc2c(cn1)c(Nc1nccs1)nn2CC(F)(F)F)N1CCCOCC1 [Compound 85, [1,4]Oxazepan-4-yl-[3-(thiazol-2-ylamino)-1-(2,2,2-trifluoro-ethyl)-1H-pyrazolo[4,3-c]pyridin-6-yl]methanone]",< 100 nM,< 100 nM,,,
